Measurements from the supplement of paper PMC13380429.
± gives the standard deviation of the averaged measurements.

Tests used:
Conditions in all cases: 72 h
HepG2 [1] = experiment: cell viability relative to DMSO; higher = less toxic
U2OS [2] = experiment: as above
Vero E6 [3] = experiment: as above
Calu-3 [4] = experiment: as above
Caco-2 [5] = experiment: as above
HepG2 [6] = experiment: relative viability EC50 (midpoint between 100% and the lowest measured viability); higher = less toxic
U2OS [7] = experiment: as above
Vero E6 [8] = experiment: as above
Calu-3 [9] = experiment: as above
Caco-2 [10] = experiment: as above
HepG2 [11] = experiment: drug sensitivity score (DSS) for viability; higher = more toxic; extreme values may be limits of the assay
U2OS [12] = experiment: as above
Vero E6 [13] = experiment: as above
Calu-3 [14] = experiment: as above
Caco-2 [15] = experiment: as above

Compound | cell viability (HepG2 [1]; 1 nM) | cell viability (HepG2 [1]; 10 nM) | cell viability (HepG2 [1]; 100 nM) | cell viability (HepG2 [1]; 1000 nM) | cell viability (HepG2 [1]; 10000 nM) | cell viability (U2OS [2]; 1 nM) | cell viability (U2OS [2]; 10 nM) | cell viability (U2OS [2]; 100 nM) | cell viability (U2OS [2]; 1000 nM) | cell viability (U2OS [2]; 10000 nM) | cell viability (Vero E6 [3]; 1 nM) | cell viability (Vero E6 [3]; 10 nM) | cell viability (Vero E6 [3]; 100 nM) | cell viability (Vero E6 [3]; 1000 nM) | cell viability (Vero E6 [3]; 10000 nM) | cell viability (Calu-3 [4]; 1 nM) | cell viability (Calu-3 [4]; 10 nM) | cell viability (Calu-3 [4]; 100 nM) | cell viability (Calu-3 [4]; 1000 nM) | cell viability (Calu-3 [4]; 10000 nM) | cell viability (Caco-2 [5]; 1 nM) | cell viability (Caco-2 [5]; 10 nM) | cell viability (Caco-2 [5]; 100 nM) | cell viability (Caco-2 [5]; 1000 nM) | cell viability (Caco-2 [5]; 10000 nM) | relative viability EC50 (HepG2 [6]) | relative viability EC50 (U2OS [7]) | relative viability EC50 (Vero E6 [8]) | relative viability EC50 (Calu-3 [9]) | relative viability EC50 (Caco-2 [10]) | drug sensitivity score (HepG2 [11]) | drug sensitivity score (U2OS [12]) | drug sensitivity score (Vero E6 [13]) | drug sensitivity score (Calu-3 [14]) | drug sensitivity score (Caco-2 [15])
CC(=O)Nc1ccc(OC[C@](C)(O)C(=O)Nc2ccc([N+](=O)[O-])c(C(F)(F)F)c2)cc1 [andarine] | 105% | 98.8% | 100% | 103% | 99% | 97.9% | 102% | 94.8% | 98% | 93.9% | 101% | 104% | 101% | 96.3% | 100% | 93.1% | 98.1% | 90.2% | 105% | 90.3% | 97.4% | 98.6% | 87.3% | 93.5% | 99.2% | > 10 µM | > 10 µM | > 10 µM | > 10 µM | > 10 µM | 0 | 0 | 0 | 0 | 0
Nc1ccc([As](=O)(O)O)cc1 [arsanilic-acid] | 110% | 103% | 98.2% | 99.3% | 104% | 107% | 107% | 104% | 97.5% | 103% | 99.5% | 98.8% | 95.4% | 97.1% | 96.4% | 114% | 87.2% | 101% | 98.1% | 97.7% | 108% | 81.2% | 86.6% | 81.9% | 95.8% | > 10 µM | > 10 µM | > 10 µM | > 10 µM | > 10 µM | 0 | 0 | 0 | 0 | 6
O=[N+]([O-])c1ncc[nH]1 [azomycin-(2-nitroimidazole)] | 104% | 104% | 102% | 107% | 93.8% | 89.5% | 88.7% | 94.9% | 98.6% | 101% | 99.6% | 102% | 101% | 100% | 100% | 100% | 102% | 94% | 92.5% | 99.8% | 109% | 104% | 107% | 87% | 108% | > 10 µM | > 10 µM | > 10 µM | > 10 µM | > 10 µM | 0 | 0 | 0 | 0 | 0
NCC(CC(=O)O)c1ccc(Cl)cc1 (stereo not given) [baclofen] | 101 ± 2.9% | 104 ± 9.8% | 106.2 ± 0.99% | 102 ± 7.6% | 99.8 ± 1.3% | 96.8 ± 1.1% | 101 ± 2.5% | 95.5 ± 2.3% | 101 ± 5.4% | 98.8 ± 8% | 97.75 ± 0.071% | 96.8 ± 1.7% | 99.7 ± 3.2% | 96.8 ± 3.8% | 104 ± 6.9% | 98.9 ± 7.8% | 104 ± 5.4% | 98.6 ± 2% | 94.8 ± 4.7% | 104 ± 4.7% | 98.6 ± 7.2% | 99.5 ± 3.1% | 95 ± 7.8% | 97.5 ± 3.8% | 100 ± 5% | > 10 µM | > 10 µM | > 10 µM | > 10 µM | > 10 µM | 0 | 0 | 0 | 0 | 0
NS(=O)(=O)c1cc2c(cc1Cl)N=C(CSCc1ccccc1)NS2(=O)=O [benzthiazide] | 105% | 86% | 101% | 94.3% | 89.7% | 100% | 98.8% | 94.6% | 98.4% | 96% | 102% | 98.5% | 98.4% | 101% | 98.9% | 84.5% | 104% | 101% | 106% | 101% | 103% | 101% | 93.2% | 96.2% | 80.7% | > 10 µM | > 10 µM | > 10 µM | > 10 µM | > 10 µM | 0 | 0 | 0 | 0 | 0.9
COc1c2ccoc2cc2oc(=O)ccc12 [bergapten] | 95.7% | 85.8% | 90% | 102% | 96.3% | 95.4% | 106% | 93.2% | 97.4% | 102% | 103% | 105% | 99.8% | 98.4% | 82% | 105% | 119% | 108% | 103% | 99% | 82.4% | 94.1% | 94.3% | 99.4% | 88.3% | > 10 µM | > 10 µM | > 10 µM | > 10 µM | > 10 µM | 0 | 0 | 0.6 | 0 | 0
C=C(C)[C@@H]1CC[C@]2(C(=O)O)CC[C@]3(C)[C@H](CC[C@@H]4[C@@]5(C)CC[C@H](OC(=O)CC(C)(C)C(=O)O)C(C)(C)[C@@H]5CC[C@]43C)[C@@H]12 [bevirimat-dimeglumine] | 91.3% | 99.5% | 103% | 94.1% | 96.7% | 99.4% | 98.5% | 99.6% | 98.2% | 96.8% | 96.8% | 103% | 96.9% | 94.7% | 102% | 99.1% | 103% | 102% | 92.9% | 110% | 92% | 95.6% | 94.1% | 102% | 94.9% | > 10 µM | > 10 µM | > 10 µM | > 10 µM | > 10 µM | 0 | 0 | 0 | 0 | 0
COC(=O)c1cc(OC)c2c(c1-c1c(C(=O)OC)cc(OC)c3c1OCO3)OCO2 [bifendate] | 94.8% | 84% | 93.2% | 93.8% | 90.4% | 99.3% | 99.3% | 97.6% | 99.5% | 101% | 105% | 105% | 105% | 94.6% | 107% | 94.4% | 98.1% | 101% | 106% | 104% | 112% | 104% | 98.4% | 102% | 89.6% | > 10 µM | > 10 µM | > 10 µM | > 10 µM | > 10 µM | 0 | 0 | 0 | 0 | 0
CCNC(=O)CCC/C=C\C[C@@H]1[C@@H](/C=C/[C@@H](O)CCc2ccccc2)[C@H](O)C[C@@H]1O [bimatoprost] | 88.6% | 93% | 95.1% | 107% | 105% | 102% | 93.3% | 103% | 96.4% | 107% | 97.7% | 105% | 96.1% | 100% | 106% | 113% | 97.6% | 101% | 100% | 101% | 97.5% | 89.8% | 106% | 92.2% | 101% | > 10 µM | > 10 µM | > 10 µM | > 10 µM | > 10 µM | 0 | 0 | 0 | 0 | 0
CCN[C@H]1CN(CCCOC)S(=O)(=O)c2sc(S(N)(=O)=O)cc21 [brinzolamide] | 100% | 118% | 101% | 110% | 112% | 96.6% | 95.4% | 102% | 106% | 99.9% | 94.4% | 99.7% | 96.2% | 85.9% | 102% | 96.2% | 91.8% | 101% | 112% | 102% | 89.1% | 95.2% | 99.3% | 104% | 106% | > 10 µM | > 10 µM | > 10 µM | > 10 µM | > 10 µM | 0 | 0 | 0 | 0 | 0
C=CCN1C[C@H](C(=O)N(CCCN(C)C)C(=O)NCC)C[C@@H]2c3cccc4[nH]cc(c34)C[C@H]21 [cabergoline] | 89.3% | 95.2% | 106% | 92.8% | 90.7% | 101% | 100% | 96.5% | 101% | 103% | 103% | 98% | 88.9% | 96.1% | 95.7% | 106% | 99.7% | 97.1% | 107% | 99.4% | 108% | 95.2% | 83% | 89% | 89.5% | > 10 µM | > 10 µM | > 10 µM | > 10 µM | > 10 µM | 0 | 0 | 0 | 0 | 4
C=C1CC[C@H](O)C/C1=C/C=C1\CCC[C@]2(C)[C@@H]([C@H](C)CCCC(C)(C)O)CC[C@@H]12 [calcifediol] | 92.6% | 103% | 97.1% | 103% | 101% | 106% | 97.5% | 105% | 98.1% | 95% | 98.9% | 95% | 98.1% | 97.3% | 97% | 98.2% | 91.4% | 78.8% | 103% | 107% | 107% | 90.2% | 107% | 92.3% | 91.8% | > 10 µM | > 10 µM | > 10 µM | > 10 µM | > 10 µM | 0 | 0 | 0 | 0 | 0
CO/N=C(\C(=O)N[C@@H]1C(=O)N2C(C(=O)OCOC(=O)C(C)(C)C)=C(/C=C\c3scnc3C)CS[C@H]12)c1csc(N)n1 [cefditoren-pivoxil] | 91% | 99.7% | 97.3% | 103% | 84.2% | 103% | 108% | 103% | 96.6% | 100% | 94.7% | 98.9% | 94.2% | 92.7% | 91.9% | 96.9% | 105% | 86.3% | 101% | 106% | 104% | 97.5% | 105% | 99.1% | 90.9% | > 10 µM | > 10 µM | > 10 µM | > 10 µM | > 10 µM | 0.2 | 0 | 0 | 0 | 0
CO[C@@]1(NC(=O)C2SC(=C(C(N)=O)C(=O)O)S2)C(=O)N2C(C(=O)O)=C(CSc3nnnn3C)CS[C@@H]21 (stereo not given in full) [cefotetan] | 108% | 89.7% | 99.1% | 100% | 103% | 98.3% | 99.6% | 98.5% | 99.8% | 96.1% | 105% | 104% | 103% | 98.2% | 99.9% | 109% | 94.1% | 108% | 105% | 103% | 92.4% | 95.3% | 93.6% | 95.9% | 101% | > 10 µM | > 10 µM | > 10 µM | > 10 µM | > 10 µM | 0 | 0 | 0 | 0 | 0
